# Results: patent US20020119979A1, “Acyclic compounds and methods for treating multidrug resistance” (priority 2000, published 2002)
# System: NIH-MDR1-G185 cells
# Assay: Fluorescent substrate (BODIPY-FL Taxol) accumulation assay
# Assay type: cell-based
# Details: BODIPY-FL taxol 500 nM, MDR modulator 10 micromolar, 40 min at 37° C.; fluorescence in NIH-MDR1-G185 cells in presence / absence of modulator
# Experimental: Fluorescent Substrate Accumulation Assay
# NIH-MDR1-GI 85 cells (obtained from M. Gottesman, NI1H) were harvested and resuspended in RPMI-1640 containing L-glutamine, 10% Cosmic Calf Serum and penicillin-streptomycin. Cell suspension aliquots of 175 microliters (1×10^5 cells) were added to individual wells of a 96 well microtiter plate and preincubated for 15 min at 37° C. with 20 microliters MDR modulator diluted in cell culture media to give a final concentration of 10 micromolar. Control wells received no modulating agent. BODIPY-FL Taxol (Molecular Probes, Eugene, Oreg.) was added to each well in 10 microliter aliquots to give a final concentration of 500 nM and cells were incubated for 40 min at 37° C. Cells were centrifuged at 100× g for 5 min at 4° C. and the cell pellet washed with 200 microliters cold PBS to remove fluorescent medium from wells. Cells were centrifuged once more, media removed, and cells resuspended in 200 microliters cold PBS. Fluorescence accumulation was measured in a fluorescence plate reader fitted with an excitation filter of 485 nm and an emission filter of 538 nm. BODIPY-FL taxol accumulation in the cells was calculated as follows:
# Accumulation Index=(fluorescence in NIH-MDR1-G185 cells in the presence of modulator)/(fluorescence in NIH-MDR1-G185 cells in absence of modulator) […]
smiles,measurement,value
"O=C(CCCNC[C@@H](O)COc1cccc2ncccc12)NC(CCCc1ccccc1)CCCc1ccccc1 [Example 25, N-{1-[2-(R)-Hydroxy-3-(quinolin-5-yloxy)-propyl]}-4-aminobutyric acid [4-phenyl-1-(3-phenyl-propyl)-butyl]-amide]",Accumulation Index,10
